# Patent publication US20100311109A1, “NON-CONTACT METHOD FOR Q[…] IN THE DYNAMICS OF MICROBIAL POPULATIONS” (priority 2009, published 2010)
# Tested on: E. coli
# Assay: Time-kill study of E. coli exposed to ciprofloxacin, measured by infrared thermography (Energy Number)
# Assay type: cell-based, Escherichia coli
# Conditions: starting inoculum approx. 2×10^6 CFU/ml, 37° C., 0-24 hours
# Description: It was desired to evaluate utility of the system in a real-time method to measure bacterial growth and death as a function of exposure to an antimicrobial. For that purpose, time-kill studies were performed using E. coli cultures, established substantially as set forth in Example 2. A series of microtiter plates were inoculated with an overnight culture of a representative gram-negative E. coli strain to achieve a starting inoculum of approximately 2×10^6 CFU/ml per well. Test wells were exposed to nine concentrations of an antimicrobial agent of a representative fluoroquinolone (ciprofloxacin) ranging from 0- to 32-fold minimum inhibitory concentration (MIC). […] of those treatments (0, […], 1, 2, 4, and 8-fold MIC) were subcultured for determination of viable cell counts. Control wells received no ciprofloxacin. […] Post-imaging, the contents of the designated wells were removed and the number of viable bacteria in each well was determined using drop and filter count methods.
# FIGS. 7a and 7b set forth the changes in bacterial viable counts and the Energy Number of the medium over time, respectively. The Energy Number of the medium over time as determined from thermodynamic modeling of the IR images collected by the detector was highly correlated (R^2=0.9891) to the viable counts obtained following 24 hr incubation (see FIG. 7c).
smiles,measurement,setting,value
O=C(O)c1cn(C2CC2)c2cc(N3CCNCC3)c(F)cc2c1=O [ciprofloxacin],IRT time-kill result (Energy Number over time),highest (16.0 and 32.0-fold MIC) concentration,rapid bacterial killing
same,IRT time-kill result (Energy Number over time),lowest (0.125 and 0.25-fold MIC) concentration,net bacterial growth
